Laboratory results published in patent US20130324615A1, “BIODEGREDATION SUPPRESSION SOLUTION FOR FORENSIC SAMPLES” (Indiana University Research and Technology Corporation, priority 2011, published 2013).

Experiments:
Type in all cases: cell-based
[1] = system: bacteria grown from soil sample extract; test: Anti-microbial agent screening: soil-extract broth cultures treated with agent, then sub-cultured; settings: confirmation on TSA plates
Method: In anti-microbial agent screening studies, a soil sample was extracted with a 0.9% saline solution of sodium chloride (NaCl) and water (H2O) and a sample loop was used to transfer approximately 10 μL of extract to a test tube containing sterile Tryptic Soy Broth (TSB). […] The broth samples were then treated with anti-microbial agents at a known concentration. The treated broth samples were then sub-cultured in another sterile TSB, minimal media (MM) or spread on sterile Tryptic Soy Agar (TSA) plates. MM is a nutrient deficient growth medium where citric acid is the only carbon source and which is selective against many species of bacteria. Bacterial growth was confirmed by visible inspection of the secondary TSB, MM or TSA plate. The broth/plate samples were then evaluated for how long they remained free of bacterial growth. […] The column labeled Bacterial Confirmatory Analysis provides the subculture media used to confirm bacterial growth.

bacteria of soil sample = test: Culturing study: soil sample directly treated with anti-microbial agent, extract inoculated into sterile TSB; settings: concentration not given
Method: Additional culturing studies were carried out where a soil sample was directly treated with an anti-microbial agent. The exposure time of the soil sample to the anti-microbial was either 60 seconds or 24 hours. The extract was then sampled and used to inoculate a sterile TSB. The amount of time for bacterial growth to become visible was then noted.

[2] = system: bacteria from saline extract of a soil sample; test: Growth curve by UV-Vis absorbance at 600 nm of TSB inoculated with saline soil extract; settings: TSB treated with 1.8% triclosan in 0.1 M NaOH or with bleach; room temperature, up to 80 days
Method: FIG. 1 describes a growth curve constructed using UV-vis analysis of cultures taken from soil exposed to water, 0.1 M sodium hydroxide (NaOH), 1.81% triclosan and bleach.
A final culturing study was conducted where a set of culture tubes containing sterile TSB were inoculated with a saline extract of a soil sample. One set of culture tubes contained only sterile TSB, a second set contained sterile TSB treated with 0.1 M NaOH, a third set contained sterile TSB treated with 1.8% triclosan in 0.1 M NaOH and a fourth set contained sterile TSB treated with bleach. The culture tubes were allowed to stand at room temperature for periods of up to 80 days. Growth was then monitored three times daily for up to 4 days by a single beam diode array UV-Vis Spectrophotometer in the 400 nm to 800 nm range. The absorbance of the samples at 600 nm was monitored over the course of the study.

Compound: CC(C)(C)CC(C)(C)c1ccc(OCCOCC[N+](C)(C)Cc2ccccc2)cc1 [Benzethonium chloride in water, Benzethonium chloride]
- Effective Period (time sub-culture remained free of bacterial growth) ([1]; agent at 1%): 0 days

Compound: [H]/N=C(\N/C(=N/[H])NCCCCCCNC(=N)NC(=N)Nc1ccc(Cl)cc1)Nc1ccc(Cl)cc1 [Chlorhexidine in water, Chlorhexidine]
- Effective Period (time sub-culture remained free of bacterial growth) ([1]; agent at 14%): 0 days
- Effective period (time for bacterial growth to become visible, cloudy) (bacteria of soil sample; soil exposure time 60 s): Cloudy after 8 days
- Effective period (time for bacterial growth to become visible, cloudy) (bacteria of soil sample; soil exposure time 24 hrs): Still clean after 36 days

Compound: O=S(=O)([O-])[O-].[Cu+2] [Copper Sulfate in water, Copper Sulfate]
- Effective Period (time sub-culture remained free of bacterial growth) ([1]; agent at 5%): 0 days

Compound: Oc1cc(Cl)ccc1Oc1ccc(Cl)cc1Cl [triclosan, 2,4,4′-trichloro-2′-hydroxydiphenyl ether]
- Bacterial growth by sample absorbance at 600 nm (FIG. 1) [2]: prevent bacterial growth

Compound: Benzalkonium chloride [Benzalkonium chloride in water]
- Effective Period (time sub-culture remained free of bacterial growth) ([1]; agent at 1%): 0 days
